In patent publication US7253177B2, “Synthesis and antimalarial activity of pyrrolo[3,2-f]quinazoline-1,3-diamine derivatives” (United States of America as Represented by the Secretary of …, priority 2004, dated 2007):
Converted amounts (≈) assume the structure as drawn. Read-outs that look alike come from different tables or passages of the source.

How the values were obtained:
Plasmodium berghei = assay: Antimalarial activity against Plasmodium berghei in mice by subcutaneous injection; type: in vivo
[1] = test system: Plasmodium falciparum D-6 clone (CDC Sierra Leone I); assay: In vitro antimalarial study, [3H]hypoxanthine uptake, D-6 clone; type: cell-based; settings: for IC50 D-6: P. falciparum D-6 clone; for IC50: Plasmodium falciparum, read-out: IC50 D-6
Description: (§1) B. Antimalarial Activities: (a). In Vitro Antimalarial Studies. The in vitro assays were conducted by using a modification of the semiautomated microdilution technique of Desjardins et al and Chulay et al.. Four P. falciparum malaria parasite clones, from CDC Indochina III (W-2), CDC Sierra Leone I (D-6), Southeast Asia Isolates (TM91C235) and RCS (Isolates from Brazil) were utilized in susceptibility testing. They were derived by direct visualization and micromanipulation from patient isolates. The W-2 clone is susceptible to mefloquine but resistant to chloroquine, sulfadoxine, pyrimethamine, and quinine, whereas the D-6 clone is naturally resistant to mefloquine but susceptible to chloroquine, sulfadoxine, pyrimethamine and quinine. Test compounds were initially dissolved in DMSO and diluted 400 fold in RPMI 1640 culture medium supplemented with 25 mM Hepes, 32 mM NaHCO3 and 10% Albumax I (Gibco BRL, Grand Island, N.Y.). These solutions were subsequently serially diluted two-fold with a Biomek 1000 (Beckman, Fullerton, Calif.) over 11 different concentrations. The parasites were exposed to serial dilutions of each compound for 48 hrs and incubated at 37° C. with 5% O2, 5% CO2 and 90% N2 prior to the addition of [^3H]hypoxanthine. After a further incubation of 18 hrs, parasite DNA was harvested from each microtiter well using Packard Filtermate 196 Harvester (Meriden, Conn.) onto glass filters. Uptake of [^3H]hypoxanthine was measured with a Packard Topcount Scintillation. Concentration-response data were analyzed by a non-linear regression logistic dose response model and the IC50 values (50% inhibitory concentrations) for each compound were calculated. (Table 3). (b). In Vivo Antimalarial Studies against P. berghei in mice: The in vivo efficacy of the artelinic acid analogs were determined in a modified Thompson test. This test measures the survivability of mice and parasitemia clearance following administration of drug on days 3-5 post infection. In brief, 5×10^6 P. berghei-infected erythrocytes (KBG-173 strain) were inoculated intraperitoneally to female mice that weighed 24-30 g. By day three post-infection, parasitemia ranged from 1.0-3.7%. Each drug, dissolved in 5% sodium bicarbonate, was administered PO twice daily from day 3-5 post-infection. Total doses for each drug ranged from 1.5-384 mg/kg with 8 mice included in each dosage group. The percent suppression of parasitemia in the treated mice compared to the untreated controls was determined for each test compound; the SD-50 (fifty percent suppression dose) and SD-90 were determined from a non-linear regression logistic dose response fit at day 6 parasitemia data. Survival of mice to day 60 post-infection was considered a cure (C). Compounds were considered active (A) when the survival time of the treated mice was greater than twice the control mice, i.e., 12-14 day (Table 4-5). (c). Sporozoite Induced Test Each compound is ground with a mortar & pestle and suspended in 0.5% hydroxyethylcellulose—0.1% Tween 80 for compounds to be administered PO and those given SC are suspended in peanut oil. Each compound is prepared at 3 different dose levels as requested by WRAIR. Compounds are administered either PO or SC to mice once 4 hr before inoculation of sporozoites. Four-week-old male CD-1 mice, purchased from Charles River and weighing 16-17 g, are placed 5 per cage and allowed to acclimate for 4 days before being treated and then inoculated with sporozoites. They are fed food and water ad-lib and maintained at 76° F. with 12 hr light and 12 hr darkness. The cages and water bottles are changed biweekly. The mice are weighed on Days 0, 3 and 6 then biweekly when blood films are taken. Plasmodium yoelii (17×) is used to infect mice that will be used to infect the mosquitoes. Mice are given a single dose of test compound 4 hr before being inoculated intraperitoneally with 2.5×10^5 sporozoites of Plasmodium yoelii on Day 0. […]

[2] = test system: Plasmodium falciparum TM91C235 (Southeast Asia Isolates); assay: In vitro antimalarial study, [3H]hypoxanthine uptake, TM91C235 clone; type: cell-based; settings: for IC50 TM91C235: P. falciparum TM91C235 clone; for IC50: Plasmodium falciparum, read-out: IC50 TM91C235
Description: as §1

[3] = test system: Plasmodium falciparum W-2 clone (CDC Indochina III); assay: In vitro antimalarial study, [3H]hypoxanthine uptake, W-2 clone; type: cell-based; settings: for IC50 W-2: P. falciparum W-2 clone; for IC50: Plasmodium falciparum, read-out: IC50 W-2
Description: as §1

[4] = test system: Plasmodium falciparum RCS (Isolates from Brazil); assay: In vitro antimalarial study, [3H]hypoxanthine uptake, RCS clone; type: cell-based; settings: P. falciparum RCS clone; for IC50: Plasmodium falciparum
Description: as §1

[5] = test system: Plasmodium berghei (KBG-173 strain); type: in vivo; settings: mice, oral
Description: as §1

[6] = test system: Plasmodium yoelii (17x) sporozoites; assay: Sporozoite induced test in mice; type: in vivo; settings: P. yoelii, mice, oral
Description: as §1, with “mosquitoes. […] Whole body weights” for “mosquitoes. Mice”, “are taken” for “are given a single dose of test compound 4 hr before being inoculated intraperitoneally with 2.5×10^5 sporozoites of Plasmodium yoelii”, “Day 0 and Day 6 then twice a week for 31 days. A blood film is taken on Day 5 and then twice a week for 31 days. Mice loosing >20% of their body weight will be sacrificed.” for “Day 0.”

CCOC(=O)Nc1nc(N)nc2ccc3c(ccn3Cc3ccccc3C(F)(F)F)c12 [Compound 2a]
# Mice Alive Day 31/Total (Plasmodium berghei; 40 mg/kg/day): 5/7 | # Mice Dead/Day Died (Plasmodium berghei; 40 mg/kg/day): 2/17 | # Mice Alive Day 31/Total (Plasmodium berghei; 20-2.5 mg/kg/day): 7/7 | # Mice Dead/Day Died (Plasmodium berghei; 20-2.5 mg/kg/day): none | IC50 D-6 [1]: 20.709 ng/mL (≈ 48.2 nM) | IC50 TM91C235 [2]: >250 ng/mL | IC50 W-2 [3]: >250 ng/mL | IC50 RCS [4]: >250 ng/mL | # Mice Dead/Day Died ([5]; 40-2.5 mg/kg/day): Death in each dose

CCOC(=O)Nc1nc(N(C(=O)OCC)C(=O)OCC)c2c(ccc3c2ccn3Cc2ccccc2C(F)(F)F)n1 [Compound 2c]
IC50 D-6 [1]: >250 ng/mL | IC50 TM91C235 [2]: >250 ng/mL | IC50 W-2 [3]: >250 ng/mL | IC50 RCS [4]: >250 ng/mL | # Mice Alive Day 30/Total ([5]; 80-1.25 mg/kg/day): 5/5 | # Mice Dead/Day Died ([5]; 80-1.25 mg/kg/day): None

CC(C)(C)OC(=O)N(C(=O)OC(C)(C)C)c1nc(N)nc2ccc3c(ccn3Cc3ccccc3C(F)(F)F)c12 [Compound 2h]
# Mice Alive Day 31/Total (Plasmodium berghei; 40-2.5 mg/kg/day): 7/7 | # Mice Dead/Day Died (Plasmodium berghei; 40-2.5 mg/kg/day): none | IC50 D-6 [1]: 0.2549 ng/mL (≈ 0.457 nM) | IC50 TM91C235 [2]: 26.366 ng/mL (≈ 47.3 nM) | IC50 W-2 [3]: 3.6678 ng/mL (≈ 6.58 nM) | IC50 RCS [4]: 5.2370 ng/mL (≈ 9.39 nM) | # Mice Alive Day 30/Total ([5]; 1.25 mg/kg/day): 2/5 | # Mice Alive Day 30/Total ([5]; 80-2.5 mg/kg/day): 5/5 | # Mice Dead/Day Died ([5]; 80-2.5 mg/kg/day): None

CC(C)(C)OC(=O)Nc1nc(N(C(=O)OC(C)(C)C)C(=O)OC(C)(C)C)c2c(ccc3c2ccn3Cc2ccccc2C(F)(F)F)n1 [Compound 2i]
# Mice Alive Day 31/Total (Plasmodium berghei; 40-2.5 mg/kg/day): 7/7 | # Mice Dead/Day Died (Plasmodium berghei; 40-2.5 mg/kg/day): none | IC50 D-6 [1]: 1.9252 ng/mL (≈ 2.93 nM) | IC50 TM91C235 [2]: 97.708 ng/mL (≈ 149 nM) | IC50 W-2 [3]: 33.569 ng/mL (≈ 51 nM) | IC50 RCS [4]: 26.380 ng/mL (≈ 40.1 nM)

CC(C)(C)OC(=O)N(C(=O)OC(C)(C)C)c1nc(N(C(=O)OC(C)(C)C)C(=O)OC(C)(C)C)c2c(ccc3c2ccn3Cc2ccccc2C(F)(F)F)n1 [Compound 2j]
# Mice Alive Day 31/Total (Plasmodium berghei; 2.5 mg/kg/day): 2/7 | # Mice Alive Day 31/Total (Plasmodium berghei; 10 mg/kg/day): 6/7 | # Mice Dead/Day Died (Plasmodium berghei; 10 mg/kg/day): 1/24 | # Mice Alive Day 31/Total (Plasmodium berghei; 20 mg/kg/day): 7/7 | # Mice Dead/Day Died (Plasmodium berghei; 20 mg/kg/day): none | # Mice Alive Day 31/Total (Plasmodium berghei; 40 mg/kg/day): 5/7 | # Mice Dead/Day Died (Plasmodium berghei; 40 mg/kg/day): 2/19

CC(=O)Nc1nc(N)nc2ccc3c(ccn3Cc3ccccc3C(F)(F)F)c12 [Compound 3a]
IC50 [1]: 0.0097 ng/mL (≈ 0.0243 nM) | IC50 [2]: 0.0206 ng/mL (≈ 0.0516 nM) | IC50 [3]: 0.0186 ng/mL (≈ 0.0466 nM) | IC50 [4]: 0.0096 ng/mL (≈ 0.024 nM)

CC(=O)N(C(C)=O)c1nc(N)nc2ccc3c(ccn3Cc3ccccc3C(F)(F)F)c12 [Compound 3b]
IC50 [1]: 0.0101 ng/mL (≈ 0.0229 nM) | IC50 [2]: 0.0212 ng/mL (≈ 0.048 nM) | IC50 [3]: 0.0183 ng/mL (≈ 0.0415 nM) | IC50 [4]: 0.0116 ng/mL (≈ 0.0263 nM)

CC(=O)Nc1nc(N(C(C)=O)C(C)=O)c2c(ccc3c2ccn3Cc2ccccc2C(F)(F)F)n1 [Compound 3d]
# Mice Dead/Day Died ([5]; 10-0.625 mg/kg/day): death in each group | # Mice Alive Day 30/Total ([5]; 220-40 mg/kg/day): 5/5 | # Mice Dead/Day Died ([5]; 220-40 mg/kg/day): None

Nc1nc(N2C(=O)CCC2=O)nc2ccc3c(ccn3Cc3ccccc3C(F)(F)F)c12 [Compound 3f, 1-Amino-3-(1-pyrrolidine-2,5-dione)-7-(2-trifluoromethyl-benzyl)-7H-pyrrolo[3,2-f]quinazoline]
IC50 [1]: < 0.488 ng/mL | IC50 [3]: < 0.488 ng/mL

O=C1CCC(=O)N1c1nc(N2C(=O)CCC2=O)c2c(ccc3c2ccn3Cc2ccccc2C(F)(F)F)n1 [Compound 3g, 1,3-Bis-(1-pyrrolidine-2,5-dione)-7-(2-trifluoromethyl)benzyl-7H-pyrrolo[3,2-f]quinazoline]
IC50 D-6 [1]: 0.1284 ng/mL (≈ 0.246 nM) | IC50 TM91C235 [2]: 0.4021 ng/mL (≈ 0.771 nM) | IC50 W-2 [3]: 0.1284 ng/mL (≈ 0.246 nM) | IC50 RCS [4]: 0.2571 ng/mL (≈ 0.493 nM) | # Mice Alive Day 30/Total ([5]; 80 mg/kg/day): 2/5 | # Mice Alive Day 30/Total ([5]; 40-10 mg/kg/day): 0/5 | # Mice Dead/Day Died ([5]; 40-10 mg/kg/day): deaths in each group

Nc1nc(O)c2c(ccc3c2ccn3Cc2ccccc2C(F)(F)F)n1 [Compound 4, 1-hydroxy-3-amino-7-(2-trifluromethyl)benzyl-7H-pyrrolo [3,2-f]quinazoline]
IC50 [1]: 7.24 ng/mL (≈ 20.2 nM) | IC50 [2]: 83.4 ng/mL (≈ 233 nM) | IC50 [3]: 53.9 ng/mL (≈ 150 nM) | oral dose range giving 100% cure against P. berghei ([5]; Thompson test): 80 to 180 mg/kg | # Mice Alive Day 30/Total ([5]; 320 mg/kg/day): 1/5 | # Mice Dead/Day Died ([5]; 40-10 mg/kg/day): deaths in each group | # Mice Alive Day 30/Total ([5]; 160-80 mg/kg/day): 5/5 | # Mice Dead/Day Died ([5]; 160-80 mg/kg/day): none

COc1cc(C)c2c(Oc3cccc(C(F)(F)F)c3)c(OC)cc(NC(C)CCCN)c2n1 (stereo not drawn) [Tefenoquine, reference compound]
Number of Mice Cured ([6]; 1.25 mg/kg): 2/5 | Number of Mice Cured ([6]; 2.5 mg/kg): 4/5 | Number of Mice Cured ([6]; 5 mg/kg): 5/5 | Number of Mice Cured ([6]; 10 mg/kg): 5/5
